We go through one molecule from patent US12259384B2, “Membrane and droplet-interface bilayer systems and methods” (University of Massachusetts, priority 2015, dated 2025).

This assay has as its target α-hemolysin (Staphylococcus aureus, UniProt P09616). In kind it is biochemical.

Chain of α-hemolysin (P09616 27-319 limits assumed): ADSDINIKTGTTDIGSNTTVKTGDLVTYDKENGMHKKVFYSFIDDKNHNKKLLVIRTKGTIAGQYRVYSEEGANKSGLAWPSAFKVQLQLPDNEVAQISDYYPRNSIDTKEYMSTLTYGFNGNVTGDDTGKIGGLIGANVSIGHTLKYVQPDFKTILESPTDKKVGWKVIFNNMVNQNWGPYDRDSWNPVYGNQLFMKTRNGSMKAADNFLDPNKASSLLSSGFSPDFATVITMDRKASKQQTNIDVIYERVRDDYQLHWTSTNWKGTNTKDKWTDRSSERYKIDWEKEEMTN

With `OC[C@H]1O[C@@H]2O[C@H]3[C@H](O)[C@@H](O)[C@@H](O[C@H]4[C@H](O)[C@@H](O)[C@@H](O[C@H]5[C@H](O)[C@@H](O)[C@@H](O[C@H]6[C@H](O)[C@@H](O)[C@@H](O[C@H]7[C@H](O)[C@@H](O)[C@@H](O[C@H]8[C@H](O)[C@@H](O)[C@@H](O[C@H]9[C@H](O)[C@@H](O)[C@@H](O[C@H]1[C@H](O)[C@H]2O)O[C@@H]9CO)O[C@@H]8CO)O[C@@H]7CO)O[C@@H]6CO)O[C@@H]5CO)O[C@@H]4CO)O[C@@H]3CO` [cyclodextrin, γ-Cyclodextrin], the “magnitude and lifetime of the reversible blockades of the α-hemolysin pore” value was “consistent with previous reports”; the “reversible blockages of the α-hemolysin pores” value was “reversible blockages of the pores by cyclodextrin are observed”.
